Experimental data as given in ChEMBL document CHEMBL1134363 (J Med Chem, 2001).

How the values were obtained:
[1] = target: T1, Adrenergic receptor alpha-2 (Rattus norvegicus, UniProt P22086+P19328+P22909); test: In vitro binding affinity against alpha-2 adrenergic receptor of rat in presence of [3H]-RX 821002 radioligand; assay type: protein assay
T1 sequence (P22086 whole entry): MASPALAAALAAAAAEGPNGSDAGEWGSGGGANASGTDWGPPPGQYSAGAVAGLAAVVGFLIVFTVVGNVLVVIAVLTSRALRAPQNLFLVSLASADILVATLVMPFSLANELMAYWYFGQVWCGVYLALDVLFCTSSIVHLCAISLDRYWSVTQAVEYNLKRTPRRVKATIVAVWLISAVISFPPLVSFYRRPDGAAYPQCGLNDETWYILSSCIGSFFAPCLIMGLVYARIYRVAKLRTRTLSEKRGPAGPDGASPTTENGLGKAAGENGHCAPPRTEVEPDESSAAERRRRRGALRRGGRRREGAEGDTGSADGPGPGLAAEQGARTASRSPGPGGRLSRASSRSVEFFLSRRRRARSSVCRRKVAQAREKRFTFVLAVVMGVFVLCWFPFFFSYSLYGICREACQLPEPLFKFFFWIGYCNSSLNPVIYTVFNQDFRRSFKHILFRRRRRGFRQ
T1 sequence (P19328 whole entry): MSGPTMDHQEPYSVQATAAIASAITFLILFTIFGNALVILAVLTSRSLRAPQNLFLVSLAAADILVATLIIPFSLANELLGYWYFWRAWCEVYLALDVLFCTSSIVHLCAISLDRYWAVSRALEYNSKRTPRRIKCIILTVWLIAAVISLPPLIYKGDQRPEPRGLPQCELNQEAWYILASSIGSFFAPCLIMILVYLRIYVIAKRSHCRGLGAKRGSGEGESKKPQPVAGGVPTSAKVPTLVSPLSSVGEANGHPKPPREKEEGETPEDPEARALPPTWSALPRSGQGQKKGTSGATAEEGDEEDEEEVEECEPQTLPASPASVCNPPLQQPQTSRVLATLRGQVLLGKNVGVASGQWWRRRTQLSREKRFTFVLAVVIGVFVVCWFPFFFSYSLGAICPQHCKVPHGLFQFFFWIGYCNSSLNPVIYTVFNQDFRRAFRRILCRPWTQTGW
T1 sequence (P22909 whole entry): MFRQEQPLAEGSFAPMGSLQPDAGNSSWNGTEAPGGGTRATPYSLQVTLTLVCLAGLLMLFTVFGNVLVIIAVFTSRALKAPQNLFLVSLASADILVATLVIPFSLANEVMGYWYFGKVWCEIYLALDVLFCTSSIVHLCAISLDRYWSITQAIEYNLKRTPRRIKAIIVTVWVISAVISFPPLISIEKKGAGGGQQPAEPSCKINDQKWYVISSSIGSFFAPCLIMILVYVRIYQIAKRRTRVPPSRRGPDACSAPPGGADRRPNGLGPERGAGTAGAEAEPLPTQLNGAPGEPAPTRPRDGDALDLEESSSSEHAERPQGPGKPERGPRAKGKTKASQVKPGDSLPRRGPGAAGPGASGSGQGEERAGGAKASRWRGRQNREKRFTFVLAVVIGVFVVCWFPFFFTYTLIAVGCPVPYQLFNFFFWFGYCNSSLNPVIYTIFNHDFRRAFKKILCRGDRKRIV

[2] = target: Norepinephrine transporter (Rattus norvegicus, UniProt Q9WTR4); test: In vitro binding affinity was determined against NA (noradrenaline) reuptake site of rat in presence of [3H]nisoxetine radioligand
[3] = target: Sodium-dependent serotonin transporter (Rattus norvegicus, UniProt P31652); test: In vitro binding affinity was determined against serotonin reuptake site of rat in presence of [3H]paroxetine radioligand
[4] = target: T2, Adrenergic receptor alpha-1 (Rattus norvegicus, UniProt P15823+P23944+P43140); test: In vitro binding affinity against alpha-1 adrenergic receptor of rat in presence of [3H]-prazosin radioligand; assay type: protein assay
T2 sequence (P15823 whole entry): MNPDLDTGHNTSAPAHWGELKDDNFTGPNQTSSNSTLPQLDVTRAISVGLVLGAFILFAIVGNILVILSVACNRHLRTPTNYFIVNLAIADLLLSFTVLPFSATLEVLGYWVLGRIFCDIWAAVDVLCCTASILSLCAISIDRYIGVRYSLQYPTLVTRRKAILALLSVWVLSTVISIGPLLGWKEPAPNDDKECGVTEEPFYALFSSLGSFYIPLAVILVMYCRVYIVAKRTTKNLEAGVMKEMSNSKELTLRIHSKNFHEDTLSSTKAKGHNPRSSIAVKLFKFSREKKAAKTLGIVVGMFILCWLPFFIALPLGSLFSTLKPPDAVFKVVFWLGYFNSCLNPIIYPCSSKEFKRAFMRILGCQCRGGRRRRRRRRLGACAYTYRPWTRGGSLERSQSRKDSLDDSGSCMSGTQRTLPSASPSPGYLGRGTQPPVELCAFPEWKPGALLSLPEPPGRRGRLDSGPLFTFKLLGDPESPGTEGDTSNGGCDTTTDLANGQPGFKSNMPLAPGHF
T2 sequence (P23944 whole entry): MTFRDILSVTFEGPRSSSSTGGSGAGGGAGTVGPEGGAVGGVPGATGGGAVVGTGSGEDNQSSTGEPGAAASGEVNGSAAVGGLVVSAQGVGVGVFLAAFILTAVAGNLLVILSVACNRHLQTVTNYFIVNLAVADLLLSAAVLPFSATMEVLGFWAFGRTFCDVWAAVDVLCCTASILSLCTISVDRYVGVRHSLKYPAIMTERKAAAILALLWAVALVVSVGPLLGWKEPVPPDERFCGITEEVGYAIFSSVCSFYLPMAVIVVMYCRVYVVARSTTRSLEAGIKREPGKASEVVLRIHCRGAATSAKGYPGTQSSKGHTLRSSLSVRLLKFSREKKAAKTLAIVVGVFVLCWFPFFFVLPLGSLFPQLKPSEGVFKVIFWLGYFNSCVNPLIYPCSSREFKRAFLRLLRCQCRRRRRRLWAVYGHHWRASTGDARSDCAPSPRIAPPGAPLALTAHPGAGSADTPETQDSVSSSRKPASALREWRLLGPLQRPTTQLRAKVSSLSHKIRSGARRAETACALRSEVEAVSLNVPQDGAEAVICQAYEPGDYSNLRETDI
T2 sequence (P43140 whole entry): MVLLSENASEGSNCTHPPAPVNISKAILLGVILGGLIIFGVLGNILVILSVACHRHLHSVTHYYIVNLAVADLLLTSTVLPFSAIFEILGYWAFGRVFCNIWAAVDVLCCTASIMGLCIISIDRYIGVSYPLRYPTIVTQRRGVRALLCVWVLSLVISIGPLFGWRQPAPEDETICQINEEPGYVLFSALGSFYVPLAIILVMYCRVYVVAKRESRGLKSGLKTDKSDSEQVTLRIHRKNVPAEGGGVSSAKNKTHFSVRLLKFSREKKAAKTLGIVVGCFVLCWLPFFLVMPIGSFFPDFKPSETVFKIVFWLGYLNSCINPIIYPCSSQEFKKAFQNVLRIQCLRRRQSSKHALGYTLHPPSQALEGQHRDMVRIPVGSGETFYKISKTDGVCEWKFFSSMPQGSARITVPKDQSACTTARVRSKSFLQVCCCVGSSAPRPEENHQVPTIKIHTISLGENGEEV

Norepinephrine transporter, sequence (Q9WTR4 whole entry): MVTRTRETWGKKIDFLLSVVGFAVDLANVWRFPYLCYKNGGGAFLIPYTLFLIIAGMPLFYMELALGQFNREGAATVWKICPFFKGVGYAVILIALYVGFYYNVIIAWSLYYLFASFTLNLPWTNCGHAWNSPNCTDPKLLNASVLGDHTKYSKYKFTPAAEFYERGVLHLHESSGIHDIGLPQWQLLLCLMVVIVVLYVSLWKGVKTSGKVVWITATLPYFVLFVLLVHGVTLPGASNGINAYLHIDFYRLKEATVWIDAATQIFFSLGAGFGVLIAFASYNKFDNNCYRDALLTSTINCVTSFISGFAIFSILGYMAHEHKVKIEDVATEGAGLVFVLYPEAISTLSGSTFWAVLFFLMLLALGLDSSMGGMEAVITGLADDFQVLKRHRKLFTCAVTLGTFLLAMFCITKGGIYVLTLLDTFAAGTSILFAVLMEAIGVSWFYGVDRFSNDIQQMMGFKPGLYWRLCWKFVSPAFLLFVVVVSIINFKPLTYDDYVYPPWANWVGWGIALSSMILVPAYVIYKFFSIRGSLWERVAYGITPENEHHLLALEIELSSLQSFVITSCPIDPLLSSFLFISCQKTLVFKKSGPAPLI
Sodium-dependent serotonin transporter, sequence (P31652 whole entry): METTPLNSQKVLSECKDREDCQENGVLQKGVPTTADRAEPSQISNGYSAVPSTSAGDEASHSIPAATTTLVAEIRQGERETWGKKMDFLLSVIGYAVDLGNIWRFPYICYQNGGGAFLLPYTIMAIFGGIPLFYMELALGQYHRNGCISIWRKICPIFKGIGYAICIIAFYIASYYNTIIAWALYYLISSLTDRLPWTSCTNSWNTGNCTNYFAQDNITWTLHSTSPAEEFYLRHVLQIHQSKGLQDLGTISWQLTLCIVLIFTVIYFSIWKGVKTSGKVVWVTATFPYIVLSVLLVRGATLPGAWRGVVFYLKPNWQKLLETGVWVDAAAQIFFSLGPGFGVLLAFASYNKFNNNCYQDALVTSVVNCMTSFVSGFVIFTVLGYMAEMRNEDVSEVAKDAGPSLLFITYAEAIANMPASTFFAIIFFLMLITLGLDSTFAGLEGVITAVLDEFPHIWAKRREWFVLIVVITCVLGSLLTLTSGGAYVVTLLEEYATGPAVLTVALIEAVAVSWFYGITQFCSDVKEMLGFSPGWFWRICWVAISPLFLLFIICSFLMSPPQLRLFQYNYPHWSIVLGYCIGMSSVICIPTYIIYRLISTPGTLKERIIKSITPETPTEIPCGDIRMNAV

Row | Log Ki [1] | Ki [2] | Ki [3] | Log Ki [4] | SMILES
1 | -6.4 | 0.251 µM | > 3.16 µM |  | C1=NC[C@@H]([C@H]2[C@@H]3CCc4ccccc4[C@@H]32)N1
2 | -7.3 | 0.794 µM | 0.501 µM | -6.5 | C1=NC(CC2CCc3ccccc3O2)CN1 (configuration not stated)
3 | -8.1 | 0.316 µM |  | -6.2 | Fc1ccc2c(c1)CC(CC1CN=CN1)C2 (configuration not stated)
4 | -7.3 | 0.501 µM | 0.158 µM |  | NC1=NC(CC2=Cc3ccccc3CC2)CO1 (configuration not stated)
5 | -7 | 0.794 µM | 0.158 µM |  | Fc1ccc2oc(CC3CN=CN3)cc2c1 (configuration not stated)
6 | -8.8 | 0.1 µM | 0.00501 µM | -6.5 | Clc1cccc2c1CC(CC1CN=CN1)CC2 (configuration not stated)
7 | -7.6 | 0.0251 µM | 0.02 µM | -6.7 | Cc1cc2c(cc1C)CC(CC1CN=CN1)C2 (configuration not stated)
8 | -6.3 |  | 0.631 µM | -6.3 | C1=NCC([C@H]2[C@@H]3Cc4ccccc4C[C@@H]32)N1 (some centres not stated)
9 | -6.1 | > 1 µM | 0.0251 µM | -6.2 | C1=NC[C@@]2(CC[C@@H]3Cc4ccccc4C[C@H]3C2)N1 (relative stereo)
10 | -7.3 | 0.1 µM | 0.0126 µM | -6.1 | Fc1cc2c(cc1F)CC(CC1CN=CN1)C2 (configuration not stated)
11 | -6.9 | 0.0631 µM | 0.251 µM | -5.8 | C1=NCC(CC2=Cc3ccccc3OC2)N1 (configuration not stated)
12 | -7.5 | 1 µM | 1.26 µM | -6.2 | C1=NCC(CC2COc3ccccc3O2)N1 (configuration not stated)
13 | -5.8 | > 1 µM | 0.251 µM | -6.6 | Cc1ccc2c(c1)C=C(CC1CN=C(N)O1)CC2 (configuration not stated)
14 | -6.6 | 0.398 µM | 0.0251 µM | -6 | C1=NC[C@H](C2C[C@@]23CCc2ccccc2C3)N1 (some centres not stated)
15 | -8.9 | 0.1 µM | 0.1 µM | -6.8 | Fc1cccc2c1CC(CC1CN=CN1)C2 (configuration not stated)
16 | -5.8 | > 1 µM | 0.0794 µM |  | Cc1ccc2c(c1)CCC(CC1CN=C(N)O1)=C2 (configuration not stated)
17 | -6.4 | > 10 µM | 0.158 µM | -5.9 | FC(F)(F)c1ccc2c(c1)C=C(CC1CN=CN1)CC2 (configuration not stated)
18 | -6.3 | > 1 µM | 0.2 µM | -5.6 | COc1ccc2c(c1)C=C(CC1CN=CN1)CC2 (configuration not stated)
19 | -7.8 | 0.1 µM | 0.01 µM | -6.1 | C1=NCC(CC2CCc3ccccc3C2)N1 (configuration not stated)
20 | -9.1 | 0.0316 µM | 0.0501 µM | -6.9 | C1=NC[C@H](C2CC23Cc2ccccc2C3)N1 (some centres not stated)
21 | -7.2 | 0.316 µM | 0.02 µM | -5.9 | C1=NC[C@@H](C[C@]23CCc4ccccc4C2C3)N1 (some centres not stated)
22 | -6.8 | 1 µM | 0.0631 µM | -6.4 | Cc1ccc2c(c1)C=C(CC1CN=CN1)CC2 (configuration not stated)
23 | -5.5 | 0.0501 µM | > 1 µM | -6.1 | C1=NCC([C@@H]2[C@@H]3Cc4ccccc4C[C@@H]32)N1 (some centres not stated)
24 | -6.4 | > 1 µM | 0.0158 µM |  | Cc1ccc2c(c1)CCC(CC1CN=CN1)=C2 (configuration not stated)
25 | -7.6 | 1 µM |  | -6.8 | COc1cccc2c1C=C(CC1CN=CN1)CC2 (configuration not stated)

Row | SMILES | Log Ki [1] | Ki [2] | Ki [3] | Log Ki [4]
26 | NC1=NCC(CC2=Cc3c(Cl)cccc3CC2)O1 (configuration not stated) | -6.2 | > 1 µM |  | -6.5
27 | C1=C(Cc2c[nH]cn2)CCc2ccccc21 | -8.9 | 0.794 µM | 0.631 µM | -7.3
28 | NC1=NCC(CC2=Cc3ccccc3CC2)O1 (configuration not stated) | -6 | 1 µM | 0.0631 µM | 
